Measured values as given in patent US11230555B2, “Bicyclic RORγ modulators” (Escalier Biosciences B.V., priority 2018, dated 2022).

Molecular target: T1, RORγt (Homo sapiens, UniProt P51449)
T1 construct: purchased reporter-cell kit
T1 sequence (P51449 269-508 limits assumed): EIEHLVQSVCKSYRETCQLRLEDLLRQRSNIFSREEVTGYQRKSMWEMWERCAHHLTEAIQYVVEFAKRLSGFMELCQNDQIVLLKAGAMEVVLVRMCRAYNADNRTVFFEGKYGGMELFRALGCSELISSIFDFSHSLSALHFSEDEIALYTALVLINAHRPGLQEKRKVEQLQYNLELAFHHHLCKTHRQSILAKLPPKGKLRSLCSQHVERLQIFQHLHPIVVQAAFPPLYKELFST
Assay: Gal4 ligand binding assay (RORγt Gal fusion reporter assay)
Format: cell-based
Conditions: inverse agonists, luciferase reporter, 24h
How it was run: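 GAL4-DBD/RORγ(t) fusion stably expressed with a Gal4-UAS luciferase reporter in […] cells, which are constitutively active. Compounds were given as 2× media with 10 points from 60 μM to 3 nM (final DMSO 0.2%) for 24 h at 37° C, 5% CO2. Luminescence was normalized to DMSO control wells.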

## Cc1cc(CN2CC3CCC(C2)N3C(=O)Cc2c(F)cccc2F)ccc1-c1ccc(C(O)(C(F)(F)F)C(F)(F)F)cc1 [Example 74, 2-(2,6-difluorophenyl)-1-(3-((4′-(1,1,1,3,3,3-hexafluoro-2-hydroxypropan-2-yl)-2-methyl-[1,1′-biphenyl]-4-yl)methyl)-3,8-diazabicyclo[3.2.1]octan-8-yl)ethan-1-one]
  IC50: > 250 nM

## Cc1cc(CN2CC3CCC(C2)N3C(=O)c2ccncc2)ccc1-c1ccc(C(O)(C(F)(F)F)C(F)(F)F)cc1 [Example 75, (3-((4′-(1,1,1,3,3,3-hexafluoro-2-hydroxypropan-2-yl)-2-methyl-[1,1′-biphenyl]-4-yl)methyl)-3,8-diazabicyclo[3.2.1]octan-8-yl)(pyridin-4-yl)methanone]
  IC50: 50 to 250 nM

## Cc1cc(CN2CC3CCC2CN3Cc2ccncc2)ccc1-c1ccc(C(O)(C(F)(F)F)C(F)(F)F)cc1 (centres unmarked) [Example 76, 1,1,1,3,3,3-hexafluoro-2-(2′-methyl-4′-((5-(pyridin-4-ylmethyl)-2,5-diazabicyclo[2.2.2]octan-2-yl)methyl)-[1,1′-biphenyl]-4-yl)propan-2-ol]
  IC50: 50 to 250 nM

## Cc1cc(CN2CC3CCC(C2)N3Cc2ccc(F)cc2)ccc1-c1ccc(C(O)(C(F)(F)F)C(F)(F)F)cc1 [Example 77, 1,1,1,3,3,3-hexafluoro-2-(4′-((8-(4-fluorobenzyl)-3,8-diazabicyclo[3.2.1]octan-3-yl)methyl)-2′-methyl-[1,1'-biphenyl]-4-yl)propan-2-ol]
  IC50: > 250 nM

## Cc1cc(CN2CC3CCC(C2)N3Cc2ccncc2)ccc1-c1ccc(C(O)(C(F)(F)F)C(F)(F)F)cc1 [Example 78, 1,1,1,3,3,3-hexafluoro-2-(2′-methyl-4′-((8-(pyridin-4-ylmethyl)-3,8-diazabicyclo[3.2.1]octan-3-yl)methyl)-[1,1′-biphenyl]-4-yl)propan-2-ol]
  IC50: < 50 nM
